Laboratory results as given in ChEMBL document CHEMBL5579854, “Targeting Relevant HDACs to Support the Survival of Cone Photoreceptors in Inherited Retinal Diseases: Identification of a Potent Pharmacological Tool with In Vitro and In Vivo Efficacy” (J Med Chem, 2024).
In brackets after ≈: the same amount, converted by molar mass. Activity calls are given as the source filed them. The rule behind the calls is not given here.

Columns and labels:
[1] = test system: Cone cell; assay: Rescue of cone cell morphology in eyes of C57BL/6J mouse model harboring rd10 mutant at 30 uM, IVT administered bilaterally measured after 5 days by IHC analysis; type: functional, tissue-based; settings: Eye, time 5.0 day
[2] = Toxicity in zebrafish larval dye model harboring atp6v0e1/ucd6 assessed as morphological abnormalities at 20 to 100 uM treated for 2 days; design: species or system Danio rerio; settings: in vivo, 48 h, dose 20-100 µM, time 2 day
[3] = test system: Mus musculus; assay: Rescue of scotopic response in eyes of C57BL/6J mouse model harboring rd10 mutant at 5 to 30 uM, IVT administered bilaterally measured after 5 days by ERG analysis; type: functional, tissue-based; settings: Eye, dose 5-30 µM, time 5.0 day
[4] = test system: Mus musculus; assay: Rescue of b-wave amplitude in photopic stimulation in eyes of C57BL/6J mouse model harboring rd10 mutant at 5 to 30 uM, IVT administered bilaterally measured after 5 days by ERG analysis; type: functional, tissue-based; settings: Eye, dose 5-30 µM, time 5.0 day
[5] = Lipophilicity, logP of compound; type: physicochemical; settings: octanol/water
[6] = test system: 661W; assay: Cytoprotective effect against H2O2-induced oxidative stress in mouse 661W cells assessed as increase in acetylated histone H3 level at 5 uM incubated for 24 hrs followed by H2O2 treatment for 3 hrs by Western blot analysis; type: functional, cell-based; settings: time 27.0 hrs
[7] = test system: Mus musculus; assay: Upregulation of GNAT2 mRNA level in eyes of C57BL/6J mouse model harboring rd10 mutant at 5 to 30 uM, IVT administered bilaterally measured after 5 days by RT-PCR analysis; type: functional, tissue-based; settings: Eye, dose 5-30 µM, time 5.0 day
[8] = test system: ARPE-19; assay: Cytotoxicity against human ARPE-19 cells assessed as cell viability at 1 uM incubated for 24 hrs by MTT assay; type: toxicity, cell-based; settings: arpe-19, 24 h
[9] = Metabolic stability in mouse liver microsomes assessed as compound recovery at 10 uM incubated for 60 mins in presence of NADPH by HPLC analysis; type: ADME, Microsome; settings: read-out: Stability
[10] = test system: 661W; assay: Cytoprotective effect against H2O2-induced oxidative stress in mouse 661W cells assessed as increase in acetylated alpha-tubulin level at 30 uM incubated for 24 hrs followed by H2O2 treatment for 3 hrs by Western blot analysis; type: functional, cell-based; settings: time 27.0 hrs
[11] = test system: Mus musculus; assay: Upregulation of ARR3 mRNA level in eyes of C57BL/6J mouse model harboring rd10 mutant at 5 to 30 uM, IVT administered bilaterally measured after 5 days by RT-PCR analysis; type: functional, tissue-based; settings: Eye, dose 5-30 µM, time 5.0 day
[12] = test system: Mus musculus; assay: Inhibition of discontinuities in tight junction pattern in eyes of C57BL/6J mouse model harboring rd10 mutant at 30 uM, IVT administered bilaterally measured after 5 days by ZO-1 staining based analysis; type: functional, tissue-based; settings: Eye, time 5.0 day
[13] = species on record: Danio rerio; assay: Rescue of visual acuity in zebrafish larval dye model harboring atp6v0e1/ucd6 at 100 uM treated for 2 days by OKR analysis; type: functional, organism-based; settings: time 2.0 day
[14] = test system: 661W; assay: Cytoprotective effect against H2O2-induced oxidative stress in mouse 661W cells assessed as increase in acetylated alpha-tubulin level incubated for 24 hrs followed by H2O2 treatment for 3 hrs by Western blot analysis; type: functional, cell-based; settings: dose 10-30 µM, time 27.0 hrs
[15] = test system: Cytochrome P450; assay: Inhibition of CYP in human liver microsomes using ECOD at 1 to 50 uM measured upto 30 mins by fluorescence based assay; type: ADME, Microsome; settings: 0.5 h, dose 1-50 µM
[16] = Metabolic stability in human liver microsomes assessed as compound recovery at 10 uM incubated for 60 mins in presence of NADPH by HPLC analysis; type: ADME, Microsome; settings: read-out: Stability
[17] = test system: Mus musculus; assay: Upregulation of […] mRNA level in eyes of C57BL/6J mouse model harboring rd10 mutant at 5 to 30 uM, IVT administered bilaterally measured after 5 days by RT-PCR analysis; type: functional, tissue-based; settings: Eye, dose 5-30 µM, time 5.0 day
[18] = Toxicity in Langendorff-perfused Wistar rat heart assessed as effect on QTc prolongation at 0.1 to 30 uM by ECG analysis; type: tissue-based; settings: dose 0.1-30 µM
[19] = Toxicity in Langendorff-perfused Wistar rat heart assessed as effect on chronotropic activity at 0.1 to 30 uM; type: tissue-based; settings: dose 0.1-30 µM
[20] = Solubility of compound; type: physicochemical
[21] = Toxicity in zebrafish larval dye model harboring atp6v0e1/ucd6 assessed as morphological change in eye at 80 to 100 uM treated for 2 days by toluidine blue staining based analysis; type: tissue-based, Danio rerio; settings: in vivo, 48 h, dose 80-100 µM, time 2 day
[22] = Toxicity in zebrafish larval dye model harboring atp6v0e1/ucd6 assessed as maximum tolerated dose treated for 2 days; design: species or system Danio rerio; settings: in vivo, 48 h, time 2 day
[23] = species on record: Danio rerio; assay: Rescue of vision in zebrafish larval dye model harboring atp6v0e1/ucd6 at 100 uM treated for 2 days by OKR analysis; type: functional, organism-based; settings: time 2.0 day
[24] = Induction of cone cell survival rate in eyes of C57BL/6J mouse model harboring rd10 mutant at 5 uM, IVT administered bilaterally measured after 5 days by fluorescence microscopy relative to control; type: functional, Eye; settings: time 5 day
[25] = test system: Mus musculus; assay: Upregulation of Hsp90b1 mRNA level in eyes of C57BL/6J mouse model harboring rd10 mutant at 5 to 30 uM, IVT administered bilaterally measured after 5 days by RT-PCR analysis; type: functional, tissue-based; settings: Eye, dose 5-30 µM, time 5.0 day
[26] = test system: Mus musculus; assay: Upregulation of Nr3c1 mRNA level in eyes of C57BL/6J mouse model harboring rd10 mutant at 5 to 30 uM, IVT administered bilaterally measured after 5 days by RT-PCR analysis; type: functional, tissue-based; settings: Eye, dose 5-30 µM, time 5.0 day
[27] = test system: Cone cell; assay: Induction of cone cell survival in eyes of C57BL/6J mouse model harboring rd10 mutant at 5 to 30 uM, IVT administered bilaterally measured after 5 days by IHC analysis; type: functional, tissue-based; settings: Eye, dose 5-30 µM, time 5.0 day
[28] = test system: Cone cell; assay: Rescue of cone morphology with numerous longer outer segments in eyes of C57BL/6J mouse model harboring rd10 mutant at 5 to 30 uM, IVT administered bilaterally measured after 5 days by fluorescence microscopy; type: functional, tissue-based; settings: Eye, dose 5-30 µM, time 5.0 day
[29] = Toxicity in zebrafish larval dye model harboring atp6v0e1/ucd6 assessed as visual impairment at 20 to 100 uM treated for 2 days; design: species or system Danio rerio; settings: in vivo, 48 h, dose 20-100 µM, time 2 day
[30] = Induction of cone cell survival rate in eyes of C57BL/6J mouse model harboring rd10 mutant at 30 uM, IVT administered bilaterally measured after 5 days by fluorescence microscopy relative to control; type: functional, Eye; settings: time 5 day
[31] = Inhibition of CYP in mouse liver microsomes using ECOD at 1 to 50 uM measured upto 30 mins by fluorescence based assay; type: ADME, Microsome; settings: 0.5 h, dose 1-50 µM
[32] = test system: Mus musculus; assay: Upregulation of GNAT1 mRNA level in eyes of C57BL/6J mouse model harboring rd10 mutant at 5 to 30 uM, IVT administered bilaterally measured after 5 days by RT-PCR analysis; type: functional, tissue-based; settings: Eye, dose 5-30 µM, time 5.0 day
[33] = test system: ARPE-19; assay: Cytoprotective effect against H2O2-induced oxidative stress in human ARPE-19 cells assessed as increase in cell viability at low concentration incubated for 24 hrs followed by H2O2 treatment by MTT assay; type: functional, cell-based
[34] = Stability of compound at pH 7.4 measured after 24 hrs; type: physicochemical; settings: buffer, read-out: Stability
[35] = Inhibition of CYP1A in mouse liver microsomes using ECOD at 1 to 50 uM measured upto 30 mins by fluorescence based assay; type: ADME, Microsome; settings: 0.5 h, dose 1-50 µM
[36] = test system: Mus musculus; assay: Downregulation of Rps6kl1 mRNA level in eyes of C57BL/6J mouse model harboring rd10 mutant at 5 to 30 uM, IVT administered bilaterally measured after 5 days by RT-PCR analysis; type: functional, tissue-based; settings: Eye, dose 5-30 µM, time 5.0 day

In the case of `O=C(NO)c1ccc(CNC(=O)N2CCc3c(c4ccccc4n3Cc3ccccc3)C2)cc1`, the Activity [1] is reported as “Active”, the Activity [2] is reported as “Non-Toxic” and the Activity [3] is reported as “Active”. The Activity [4] was “Active”, the logP [5] was 2.94 and the Activity [6] was “Active”. The Activity [7] was “Active”, the Activity [8] was “Non-Toxic” and the remaining at 1 h, 10 µM [9] was 87%. For the same compound, the Activity [10] was “Active”, the Activity [11] was “Active” and the inhibition [12] was “Active”. For the same compound, the Activity [13] was “inactive”, the Activity [14] was “Dose-Dependent Effect” and the “inhibition (INH)” value [15] was “Not Active”. The remaining at 1 h, 10 µM [16] was 84%, the Activity [17] was “Active” and the Activity [18] was “Non-Toxic”. For the same compound, the Activity [19] was “Non-Toxic”, the solubility [20] was 309 µM (≈ 140 µg/mL) and the Activity [21] was “Non-Toxic”. For the same compound, the MTD [22] was 100 µM, the Activity [23] was “Active” and the Activity [24] was 4%. The Activity [25] was “Active”, the Activity [26] was “Active” and the Activity [27] was “Active”. For the same compound, the Activity [28] was “Active”, the Activity [29] was “Non-Toxic” and the Activity [30] was 17%. For the same compound, the “inhibition (INH)” value [31] was “Not Active”, the Activity [32] was “Active” and the Activity [33] was “Active”. For the same compound, the remaining at 24 h [34] was greater than 99%, the “inhibition (INH)” value [35] was “Not Active” and the Activity [36] was “Active”.
